Values joined by “and” are separate entries in the source; they are usually repeats but may differ in a detail not shown here. Identical values can stand only once. Like-named read-outs stand apart in the source and are kept apart here.
What was measured:
[1] = system: HIV-1 K103N clinical isolates 4937 and 5002; assay: microbe, parasite or virus in culture; assay type: cell-based; conditions: Human immunodeficiency virus 1, PBMC, read-out: Average EC50 Values ± Standard Deviation, K103N
HIV-1 NL4-3 w.t. virus = assay: microbe, parasite or virus in culture; assay type: cell-based; conditions: for Fold Change, W.T.: Table 11, NL4-3
[2] = biological target: human DNA polymerase beta (Homo sapiens, UniProt P06746); assay: Human cellular DNA polymerase beta assay; assay type: biochemical
From the text: (§1) HIV RT, like other viral polymerase, shares limited structural homology with the cellular DNA polymerases responsible for normal nuclear and mitochondrial DNA synthesis and repair. This raises the formal possibility that inhibitors of HIV RT might inhibit cellular polymerases, resulting in cellular toxicity. In particular, inhibition of polymerase gamma has the potential to result in mitochondrial toxicity. The ability of Compound I and Compound III to inhibit cellular DNA polymerases was assessed using standard in vitro assays (Table 5).

HIV-1 W.T. (BH10) virus [3] = assay: PBMC cell assay, W.T. (BH10); assay type: cell-based
[4] = biological target: T1, human DNA polymerase gamma (Homo sapiens, UniProt P54098); assay: Human cellular DNA polymerase gamma assay; assay type: biochemical
T1 sequence (P54098 1-1239): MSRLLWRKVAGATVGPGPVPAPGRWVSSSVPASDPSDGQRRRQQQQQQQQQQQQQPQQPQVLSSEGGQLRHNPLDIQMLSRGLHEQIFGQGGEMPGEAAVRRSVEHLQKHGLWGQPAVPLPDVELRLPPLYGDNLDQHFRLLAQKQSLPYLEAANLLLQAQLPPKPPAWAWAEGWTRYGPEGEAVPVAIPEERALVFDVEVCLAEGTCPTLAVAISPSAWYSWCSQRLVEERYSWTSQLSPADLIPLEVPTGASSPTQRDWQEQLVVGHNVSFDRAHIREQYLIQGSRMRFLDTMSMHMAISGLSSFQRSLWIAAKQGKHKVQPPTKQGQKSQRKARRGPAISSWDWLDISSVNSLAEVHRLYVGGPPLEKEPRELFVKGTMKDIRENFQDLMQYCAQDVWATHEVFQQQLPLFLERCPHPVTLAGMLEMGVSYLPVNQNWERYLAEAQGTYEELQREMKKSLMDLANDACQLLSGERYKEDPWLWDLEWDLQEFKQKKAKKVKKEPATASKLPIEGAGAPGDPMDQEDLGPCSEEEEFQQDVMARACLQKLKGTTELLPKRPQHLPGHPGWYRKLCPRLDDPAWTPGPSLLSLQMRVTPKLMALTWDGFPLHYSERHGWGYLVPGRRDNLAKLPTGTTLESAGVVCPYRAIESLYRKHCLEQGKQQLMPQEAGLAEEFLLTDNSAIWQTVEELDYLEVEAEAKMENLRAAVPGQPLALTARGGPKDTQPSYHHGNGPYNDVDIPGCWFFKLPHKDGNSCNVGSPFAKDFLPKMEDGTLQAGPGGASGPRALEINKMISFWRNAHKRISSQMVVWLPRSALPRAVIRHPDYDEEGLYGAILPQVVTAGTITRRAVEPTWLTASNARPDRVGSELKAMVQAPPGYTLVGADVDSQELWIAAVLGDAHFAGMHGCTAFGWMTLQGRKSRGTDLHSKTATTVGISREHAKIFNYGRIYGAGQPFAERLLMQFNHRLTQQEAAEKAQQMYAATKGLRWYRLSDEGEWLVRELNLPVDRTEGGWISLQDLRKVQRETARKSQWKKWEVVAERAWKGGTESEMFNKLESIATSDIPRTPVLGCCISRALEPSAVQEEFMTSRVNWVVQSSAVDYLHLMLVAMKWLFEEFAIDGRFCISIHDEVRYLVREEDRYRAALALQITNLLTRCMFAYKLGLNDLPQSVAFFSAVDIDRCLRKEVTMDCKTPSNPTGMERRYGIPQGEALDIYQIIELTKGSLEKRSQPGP
From the text: as §1

[5] = Cellular cytotoxicity, 4 days, MTS, MOLT-4; assay type: cell-based; conditions: human, Table 21, read-out: Average CC50 Values ± Standard Deviation, MOLT-4
Procedure: (§2) Cell viability was measured by standard MTT or MTS staining.

[6] = Longer term cytotoxicity, 9 days, MTS, HeLa; conditions: human
Procedure: as §2
Cells were repeatedly treated with a range of drug concentrations (0.005 to 100 μM) for 9 (HeLa) or 12 days (HuH7, HepG2).

[7] = Cellular cytotoxicity, 4 days, MTS, IM9; assay type: cell-based; conditions: human, Table 21, read-out: Average CC50 Values ± Standard Deviation, IM9
Procedure: as §2

in vitro = assay: in vitro
Procedure: Cell viability was determined via MTT staining.

[8] = Cellular cytotoxicity, 4 days, six HIV-1 host cell lines (ranges); assay type: cell-based; conditions: human, read-out: Mean CC50 Range
Procedure: as §2

[9] = Cellular cytotoxicity, 4 days, MTS, H9; assay type: cell-based; conditions: human, Table 21, read-out: Average CC50 Values ± Standard Deviation, H9
Procedure: as §2

[10] = system: HIV-1 BH10 wild-type virus; assay: microbe, parasite or virus in culture; assay type: cell-based; conditions: for Fold Change, W.T.: Table 7, EC50 mutant / EC50 wild-type
HIV-1 W.T. (BH10) virus [11] = assay: microbe, parasite or virus in culture; assay type: cell-based; conditions: for Fold Change, W.T.: Table 13, MT-2
From the text: The HIV-1 strains used were BH10, NL4-3 and IIIB: the cell lines were U-937 cells (human monocytes derived from a histiocytic lymphoma); MOLT-4 cells (a human T lymphoblastic leukemia cell line); H-9 cells (human lymphoblastic T cells); and MT-2 and MT-4 human leukemia T cells.

[12] = Cellular cytotoxicity, 4 days, MTS, MT-4; conditions: human, Average CC50 Values ± Standard Deviation, MT-4, Table 21, 4 days, MTS
Procedure: Following drug exposure for 4 days, cell viability was measured by MTS staining and CC50 values were determined. Drug concentrations ranged from 0.005 μM to 100 μM.
The preceding data, allows us to calculate selectivity index (SI) values, based on the ratio of CC50 to EC50 in MT-4 cells (the standard assay used in this work).

[13] = Human immunodeficiency virus 1, NL43, MT4, read-out: Average EC50 Values ± Standard Deviation, W.T.
[14] = Human immunodeficiency virus 1, NL43, MT4, read-out: Average EC50 Values ± Standard Deviation, host MT-4, virus NL4-3
[15] = Table 5, read-out: Average IC50 Values ± Standard Deviation, DNA Pol Beta
[16] = Table 5, preliminary data from a single experiment, read-out: Average IC50 Values, DNA Pol Gamma
[17] = MOLT-4 cells (T lymphoblastic leukemia cell line)
[18] = IM9 cells (B lymphoblastic cell line)
[19] = H9 cells (lymphoblastic T cells)
[20] = Human immunodeficiency virus 1, MT4, 96 h, read-out: mean EC50, wild-type BH10 virus in MT-4 cells, p24 ELISA, 4 day
[21] = Human immunodeficiency virus 1, MT4, read-out: Average EC50 Values ± Standard Deviation, host MT-4, virus BH10, Table 17
[22] = Human immunodeficiency virus 1, MT2, read-out: Average EC50 Values ± Standard Deviation, W.T. (BH10)
[23] = Human immunodeficiency virus 1, MT2, read-out: Average EC50 Values ± Standard Deviation, host MT-2, virus BH10
[24] = Human immunodeficiency virus 1, PBMC, read-out: Average EC50 Values ± Standard Deviation, W.T. (BH10)
[25] = Human immunodeficiency virus 1, PBMC, read-out: mean EC50, BH-10 strain in human PBMC
[26] = read-out: mean EC50, wild-type BH10 virus in MT-4 cells, p24 ELISA, 4 day

SMILES	EC50 [1] [nM]	EC50 (HIV-1 NL4-3 w.t. virus; [13]) [nM]	EC50 (HIV-1 NL4-3 w.t. virus; [14]) [nM]	Average IC50 Values ± Standard Deviation, DNA Pol Beta ([2]; Table 5)	IC50 [2, 15] [nM]	IC50 [4, 16]	CC50 at 4 days [5, 17] [nM]	CC50 at 9 days ([6]; HeLa epithelial cells) [nM]	CC50 at 4 days [7, 18] [nM]	CC50 at 3 days (in vitro) [nM]	CC50 at 4 days [8] [nM]	CC50 at 4 days [9, 19] [nM]	EC50 [10, 20] [nM]	EC50 [10, 21] [nM]	EC50 (HIV-1 W.T. (BH10) virus [11]; [22]) [nM]	EC50 (HIV-1 W.T. (BH10) virus [11]; [23]) [nM]	CC50 at 4 days ([12]; MT-4 cells (leukemia T cells)) [nM]	Fold Change, W.T. (HIV-1 NL4-3 w.t. virus) [fold]	EC50 (HIV-1 W.T. (BH10) virus [3]; [24]) [nM]	EC50 (HIV-1 W.T. (BH10) virus [3]; [25]) [nM]	further results
O=C1Nc2ccc(Cl)cc2C(C#CC2CC2)(C(F)(F)F)O1 (stereo not shown) [EFV, 6-chloro-4-cyclopropylethynyl-4-trifluoromethyl-1,4-dihydro-2H-3,1-benzoxazin-2-one, reference compound]	41.4 ± 36.9	2.3 ± 0.2	2.3 ± 0.2	did not reach an IC50	314000 ± 177000	116000 nM	41700 ± 3400	48600 ± 2500	51000 ± 1300	70900 ± 7600	23200 to 51000	50000 ± 9000	~1	1.2 ± 0.8	0.8 ± 0.2	0.8 ± 0.2	44100 ± 18200				IC50 ([2]; Table 6, N=4, read-out: Mean IC50 Values ± Standard Deviation, DNA Pol Beta): 314000 ± 177000 nM; EC50 (HIV-1 W.T. (BH10) virus [3]; Human immunodeficiency virus 1, Table 14, PBMC, read-out: Average EC50 Values ± Standard Deviation, W.T. (BH10)): 0.9 ± 0.3 nM; IC50 ([4]; Table 6, N=4, read-out: Mean IC50 Values ± Standard Deviation, DNA Pol Gamma): ≥ 100000 nM
CO[P@](=O)(c1cc(C)cc(/C=C/C#N)c1)c1c(C(N)=O)[nH]c2ccc(Cl)c(F)c12 [Compound I, (2-Carbamoyl-5-chloro-4-fluoro-1H-indol-3-yl)-[3-((E)-2-cyano-vinyl)-5-methyl-phenyl]-(R)-phosphinic acid methyl ester]	0.7 ± 0.3	2 ± 0.1	2 ± 0.1	did not reach an IC50						52600	16600 to 32900		1	1 ± 0.4	0.9 ± 0.6	0.9 ± 0.6		1	0.4 ± 0.1	0.4	IC50 ([2]; Average IC50 Values ± Standard Deviation, DNA Pol Beta, Table 5): ≥ 422000 nM; IC50 ([2]; Mean IC50 Values ± Standard Deviation, DNA Pol Beta, Table 6, N=4): 422000 ± 150000 nM; IC50 ([4]; Average IC50 Values, DNA Pol Gamma, Table 5, preliminary data from a single experiment): 118000 nM; IC50 ([4]; Mean IC50 Values ± Standard Deviation, DNA Pol Gamma, Table 6, N=4): 118000 nM; CC50 at 4 days [5]: 16600 ± 400 nM; CC50 at 9 days [6]: 27900 ± 1140 nM; CC50 at 4 days [7]: 32900 ± 2600 nM; CC50 at 4 days [9]: 20000 ± 1600 nM; EC50 ([10]; Human immunodeficiency virus 1, MT4, read-out: EC50, BH10, Example 16 comparative tables, unit inferred, several lines per compound): 1 ± 0.5 nM; Fold Change, W.T. [10]: 1 fold; EC50 ([10]; read-out: EC50, BH10, Example 16 comparative tables, unit inferred, several lines per compound): 0.7 nM; EC50 [10, 26]: 1.2 nM; Fold Change, W.T. (HIV-1 W.T. (BH10) virus [11]): 1 fold; CC50 at 4 days [12]: 27000 nM
CO[P@](=O)(c1cc(C)cc(/C=C/C#N)c1)c1c(C(N)=O)[nH]c2ccc(Cl)cc12 [Compound III, (2-Carbamoyl-5-chloro-1H-indol-3-yl)-[3-((E)-2-cyano-vinyl)-5-methyl-phenyl]-(R)-phosphinic acid methyl ester]	0.9 ± 0.4	1.7 ± 0.3	1.7 ± 0.3	did not reach an IC50	≥ 479000	≥ 60000 nM and 60100 nM	14800 ± 1000	29900 ± 2090	50000 ± 17400		14800 to 50000	31300 ± 5200	1.2	1.2 ± 0.6	1.1 ± 0.4	1.1 ± 0.4	18600	1	0.4 ± 0.1	0.4	CC50 at 3 days (in vitro; human, stimulated primary blood mononuclear cells (PBMC)): 66900 nM; Fold Change, W.T. [10]: 1 fold; EC50 [10, 26]: ~1 nM and 1 nM; Fold Change, W.T. (HIV-1 W.T. (BH10) virus [11]): 1 fold

Reference: patent publication US8486991B2, “Enantiomerically pure phosphoindoles as HIV inhibitors” (Idenix Pharmaceuticals, Inc., priority 2006, dated 2013)
